Experimental data published in patent US9605026B2, “Hydrogen-bond surrogate peptides and peptidomimetics for p53 reactivation” (New York University, priority 2013, dated 2017).

Tests used:
[1] = system: p300, p53, and p53-regulated genes; experiment: qPCR expression of p300, p53, p21, miR-34a, miR-200c in UMSCC74A cells; type: cell-based, human; settings: 10 μM, 24 hours
From the text: FIG. 5A is an schematic illustration showing that CH1 has two distinct target sites. HIF1-α/p300 structures were used as guides to design helix mimetics that target site A and site B on the CH1 domain of p300. […] CH1iA (SEQ ID NO: 7) and CH1iB (SEQ ID NO: 8) were designed to mimic two helices from the C-terminal domain of HIF-1α. The peptides were locked into the helical conformation by the hydrogen bond surrogate method. FIG. 5C is a graph of p53 activity. UMSCC47 (left) and UMSCC74A (right) cells were co-transfected with a p53 Firefly luciferase reporter plasmid and a control Renilla luciferase plasmid. After 24 hours, cells were treated with control (vehicle), CH1iA (10 μM), or CH1iB (10 μM) for 24 hours. […] UMSCC47 (top panel) and UMSCC74A (bottom panel) cells were treated with control (vehicle), CH1iA (10 μM), or CH1iB (10 μM) for 24 hours. mRNA expression was determined using qPCR with validated TaqMan assays. […]
Cells were extracted for total RNA using the TRIzol® reagent (Invitrogen) or TaqMan PreAmp Cells-to-CT kit (Applied Biosystems). Expression of p300, p53, p21, miR-34a and miR-200c were determined using the Applied Biosystems 7900HT Fast Real-Time PCR System with validated TaqMan gene expression assays (Applied Biosystems). p53, p300, and p21 expression were normalized to GADPH and miR-34a and miR-200c expression were normalized to RNU44 using the ΔΔCt method.

p53 = p53 transcriptional activity (Cignal p53 luciferase reporter) in UMSCC47 cells; type: cell-based, human; settings: 24 hours
From the text: (§1) FIG. 5A is an schematic illustration showing that CH1 has two distinct target sites. HIF1-α/p300 structures were used as guides to design helix mimetics that target site A and site B on the CH1 domain of p300. […] CH1iA (SEQ ID NO: 7) and CH1iB (SEQ ID NO: 8) were designed to mimic two helices from the C-terminal domain of HIF-1α. The peptides were locked into the helical conformation by the hydrogen bond surrogate method. FIG. 5C is a graph of p53 activity. UMSCC47 (left) and UMSCC74A (right) cells were co-transfected with a p53 Firefly luciferase reporter plasmid and a control Renilla luciferase plasmid. After 24 hours, cells were treated with control (vehicle), CH1iA (10 μM), or CH1iB (10 μM) for 24 hours. Firefly luciferase activity was normalized to Renilla luciferase activity to control for transfection efficiency. Data is normalized to control and presented as mean±SEM. *P<0.05, n=3. FIG. 5D is a western blot showing total and acetylated p53 levels. UMSCC47 (left) and UMSCC74A (right) cells were treated with control (vehicle), CH1iA (10 μM), or CH1iB (10 μM) for 24 hours. Cell lysates were immunoblotted with anti-p53 or anti-acetylated[K382]-p53 antibody. FIG. 5E is a pair of graphs of p300, p53, p21, miR-34a, and miR-200c expression. UMSCC47 (top panel) and UMSCC74A (bottom panel) cells were treated with control (vehicle), CH1iA (10 μM), or CH1iB (10 μM) for 24 hours. mRNA expression was determined using qPCR with validated TaqMan assays. Data is normalized to control cells and presented as mean±SEM. *P<0.01, control vs. CH1iB, n=3. FIG. 5F is a western blot showing HPV16 E6-p300 association. UMSCC47 cells were treated with control (vehicle), CH1iA (10 μM), or CH1iB (10 μM) for 24 hours. Cell lysates were extracted, immunoprecipitated with anti-p300 antibody, and immunoblotted with anti-E6 antibody. Cell lysates were immunoblotted with anti-E6 or anti-p300 antibody for input control. FIG. 5G is a set of graphs of cell proliferation. UMSCC47 (top left panel), UMSCC74A (top right panel), and IMR90 (human normal fibroblasts) (bottom panel) cells were treated with control (vehicle), CH1iA (10 μM), CH1iB (10 μM), cis-platinum (10 μM), CH1iA (10 μM) and cis-platinum (10 μM), or CH1iB (10 μM) and cis-platinum (10 μM) for 24, 48, or 72 hours. Data is normalized to Day 0 and presented as mean±SEM. *P<0.01, control vs. CH1iB or cis-platinum, **P<0.01 CH1iB or cis-platinum vs. CH1iB and cis-platinum, n=6.
FIG. 6A is a western blot showing total and acetylated p53 levels. […] UMSCC47 cells were treated with control (vehicle), CH1iB (10 μM), cis-platinum (10 μM), or CH1iB (10 μM) and cis-platinum (10 μM) for 24 hours. mRNA expression was determined using qPCR with validated TaqMan assays. […]

[2] = system: human normal IMR90 fibroblasts; experiment: Cell proliferation (MTT) in IMR90 fibroblasts; type: cell-based; settings: for effect on efficacy of cis-platinum on proliferation: IMR90, 10 μM with cis-platinum 10 μM; for cell proliferation, single-agent: IMR90 human normal fibroblasts, 10 μM
From the text: as §1, with “Data is normalized to Day 0 and presented as mean±SEM. *P<0.01, control vs. CH1iB or cis-platinum, **P<0.01 CH1iB or cis-platinum vs. CH1iB and cis-platinum, n=6.” left out
Cell proliferation was assessed using the MTT reagent (Roche Molecular Biochemicals, Nutley, N.J.) to detect metabolic active cells. Absorbance was measured at 570 nm in the Spectra Max 190 ELISA reader (Molecular Devices, Sunnyvale, Calif.) after overnight incubation. […] Apoptotic cells were analyzed using BD FACS Calibur (BD Biosciences Corporation, Franklin Lakes, N.J.) at The Ohio State University Comprehensive Cancer Center Analytical Cytometry Core.

Row | Substance | Expression of p300, p53, and p53-regulated genes [1] | p53 activity increase (p53; UMSCC47 (HPV-positive), 10 μM, vs control (vehicle)) | effect of cis-platinum on p53 activity (p53; UMSCC47, CH1iB 10 μM with cis-platinum 10 μM) | effect on efficacy of cis-platinum on proliferation [2] | cell proliferation, single-agent [2] | p53 activity, effect in words (p53; UMSCC47 (HPV-positive), 10 μM)
1 | XELA*RALDQ-NH2 (ELXRALDQ; HBS: 4-pentenoic acid, N-allylalanine; C-terminal amide; CH1iB) [X 4-pentenoic acid, A* N-allylalanine] | unchanged | 71% | potentiated | did not augment | no effect | 
2 | XTAA*DCEYNAR (TAXDCEYNAR; HBS: 4-pentenoic acid, N-allylalanine; CH1iA) [X 4-pentenoic acid, A* N-allylalanine, reference compound] | unchanged |  |  | did not augment | no effect | no effect
